Measurements taken from patent US20220257706A1, “EPIDERMAL GROWTH FACTOR RECEPTOR (EGFR) LIGANDS” (NANYANG TECHNOLOGICAL UNIVERSITY, priority 2019, published 2022).

What was measured:
HaCaT cells [1] = assay: EdU incorporation assay (DNA synthesis); format: cell-based, human
Procedure: EdU incorporation assay was performed using an EdU proliferative kit (iFluor 488) according to manufacturer's instructions. Briefly, 2.5×10^4 HaCaT cells per well were seeded in a 96-well plate. […] Cells were then fixed, permeabilized, and incubated in a reaction mix containing iFluor 488 for 30 min. The nuclei were stained using DAPI. The plates were visualized using a fluorescence microscope.

HaCaT cells [2] = assay: Cell migration scratch assay; format: cell-based, human; details: data not shown
Procedure: Cell migration was monitored using the scratch assay. Briefly, HaCaT cells were seeded into 2 well silicone inserts with a defined gap of 500 μm (ibidi, Germany). […] After incubation for 8 h, the wells were photographed using inverted phase-contrast microscope. Images were analyzed for the percentage of cell-free area using the Wimasis image analysis platform.

newborn ICR mice = assay: Newborn mice model for incisor eruption; format: in vivo, mouse; details: 3 mg/kg subcutaneous, five consecutive days; saline control 153 h
Procedure: ICR mice were obtained from Vital Rital Laboratories (Beijing, China). […] All experiments were approved and performed in accordance with the institutional guidelines of the Experimental Animal Center of the Chinese Academy of Medical Science (Beijing, China). Subcutaneous injections were made for five consecutive days in the nape of the neck of the newborn mice starting from the day of birth (day 0). […] Incisor eruption was recorded daily by visual inspection. Incisor eruption was defined as the time at which a given tooth first pierced the oral epithelium.

MEK1/2 = assay: Western blot of phosphorylated MEK1/2 in HaCaT cells; format: cell-based, human; details: 5 μM
Procedure: (§1) Blot transfer was performed onto a PVDF membrane (GE healthcare, Sweden) at 250 mA for 120 min on ice. The blot was blocked with 5% BSA TBST before incubating overnight at 4° C. with anti-P-MEK1/2 rabbit antibody (1:2000 in 5% BSA TBST; Cell Signaling, US), anti-MEK1/2 rabbit antibody (1:2000 in 5% BSA TBST; Cell Signaling, US), anti-P-ERK1/2 rabbit antibody (1:2000 in 5% BSA TBST; Cell Signaling, US), anti-ERK1/2 rabbit antibody (1:2000 in 5% BSA TBST; Cell Signaling, US), and anti-β-actin mouse antibody (1:10000 in 5% BSA TBST; Merck Millipore, US). After incubation, the membrane was washed with TBST at room temperature three times for 10 min each. The blot was then incubated with secondary anti-mouse or anti-rabbit horseradish peroxidase (HRP) (1:5000 in 5% BSA TBST; Cell Signaling, US) and was incubated for another 1 h at room temperature. The blot was washed five times 10 min each with TBST at room temperature before addition of chemiluminescence substrate (Advansta, US) and exposure on X-ray film (Fujifilm, Japan).

ERK1/2 = assay: Western blot of phosphorylated ERK1/2 in HaCaT cells; format: cell-based, human; details: 5 μM
Procedure: as §1

EGFR = EGFR (Homo sapiens, UniProt P00533); assay: TR-FRET EGFR ligand binding assay (competitive displacement of biotin-EGF); parameters: purchased PerkinElmer
Procedure: TR-FRET ratio was measured using a microplate reader in dual emission mode (Excitation: 340 nm, emission: 665 nm and 615 nm) (Cytation 1, US). […] (SEQ ID NO:11) or roseltide rT7 with an amino acid sequence of […] (SEQ ID NO:17) were used as negative control.

[3] = Acid stability (0.2 M HCl, 37° C.)
Procedure: (§2) Samples were collected at various time points.
(§3) All collected samples from various stability assays were analyzed by RP-HPLC with a linear gradient of mobile phase A (0.05% TFA/H2O) and mobile phase B (0.05% TFA/ACN) on aeris peptide XB-C18 column (Phenomenex, US). The resulting peaks were collected and identified by MALDI-TOF MS. The results were expressed as percentage of initial concentration using the peak area of the HPLC profile.

[4] = system: pepsin, trypsin, pronase, human neutrophil elastase; assay: Proteolytic stability against a panel of proteases; details: human
Procedure: as §2, §3

Chain of EGFR (P00533 25-645 limits assumed): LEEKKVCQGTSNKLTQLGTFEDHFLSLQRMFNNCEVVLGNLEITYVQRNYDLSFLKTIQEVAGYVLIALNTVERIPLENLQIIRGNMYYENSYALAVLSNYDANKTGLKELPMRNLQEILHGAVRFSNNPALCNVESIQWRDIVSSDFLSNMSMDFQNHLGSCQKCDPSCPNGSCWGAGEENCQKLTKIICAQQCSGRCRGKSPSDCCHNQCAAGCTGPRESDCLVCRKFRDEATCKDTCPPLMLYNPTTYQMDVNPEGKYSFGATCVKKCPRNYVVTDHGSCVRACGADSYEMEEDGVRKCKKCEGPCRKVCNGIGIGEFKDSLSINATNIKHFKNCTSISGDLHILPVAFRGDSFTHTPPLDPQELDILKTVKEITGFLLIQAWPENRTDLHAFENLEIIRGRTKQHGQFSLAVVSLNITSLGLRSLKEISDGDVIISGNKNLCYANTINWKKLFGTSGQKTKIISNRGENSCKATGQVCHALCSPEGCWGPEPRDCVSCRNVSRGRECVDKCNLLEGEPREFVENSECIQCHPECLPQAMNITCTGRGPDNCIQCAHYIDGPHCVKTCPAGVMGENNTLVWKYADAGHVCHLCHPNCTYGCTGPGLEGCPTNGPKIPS

SMILES: CC[C@H](C)[C@@H]1NC(=O)[C@H](CCC(=O)O)NC(=O)[C@H]([C@@H](C)O)NC(=O)[C@@H]2CSSC[C@@H]3NC(=O)[C@H](Cc4ccccc4)NC(=O)[C@H](CC(N)=O)NC(=O)[C@H](CO)NC(=O)[C@H](CSSC[C@H](NC(=O)[C@@H](N)CCC(N)=O)C(=O)N[C@@H](CCCCN)C(=O)N4CCC[C@H]4C(=O)N[C@@H](CC(N)=O)C(=O)NCC(=O)N[C@@H](C)C(=O)N[C@@H](CCCCN)C(=O)N2)NC(=O)[C@H](CSSC[C@@H](C(=O)N[C@@H](C)C(=O)N[C@@H](CC(N)=O)C(=O)N[C@@H](CCCNC(=N)N)C(=O)O)NC(=O)[C@H]([C@@H](C)O)NC(=O)CNC(=O)[C@H](CO)NC(=O)[C@H](CCCCN)NC(=O)[C@H](CCC(N)=O)NC(=O)CNC(=O)[C@H](C)NC(=O)[C@H](Cc2ccc(O)cc2)NC(=O)[C@H](CCCNC(=N)N)NC(=O)[C@H](CC(C)C)NC3=O)NC(=O)[C@@H]2CCCN2C(=O)[C@@H]2CCCN2C(=O)[C@H]([C@@H](C)CC)NC(=O)[C@H](CO)NC1=O [bleogen pB1]
- DNA synthesis of HaCaT cells (EdU incorporation) (HaCaT cells [1]): enhances DNA synthesis
- HaCaT cell migration (HaCaT cells [2]): accelerate
- time of incisor eruption in newborn mice (newborn ICR mice): 125 h
- phosphorylation of MEK1/2 (MEK1/2): induces the phosphorylation
- phosphorylation of ERK1/2 (ERK1/2): induces the phosphorylation
- IC50 (EGFR): 1720 ± 0.075 nM
- potency relative to EGF in receptor displacement (fold less potent) (EGFR): 50-100 fold
- half-life at 0.1 M [3]: > 8.33 h
- half-life at 0.1 M [4]: > 8.33 h
